Reference: patent US4689345A, “Oxygenated alkyl substituted bicyclo alkanes” (CBD Corporation, priority 1986, dated 1987)
Entries after “also recorded” stand apart in the source; their conditions may differ.

Columns and labels:
[1] = tested on: estrogen receptor (keloid cytosol); assay: Keloid cytosol steroid binding assay, estrogen; set-up: species or system human
[2] = tested on: human fibroblast cells; assay: Elastin production by fibroblast cells; type: cell-based
Excerpt: (§1) Experiments generally following the methodology of Boote et al., Biochimica et Biophysica Acta, Volume 607, pages 145-160 (1980), have shown that while control human fibroblast cells have copious collagen production, treatment with the compounds of the invention provides human fibroblast cells with suppressed collagen production and with an about 30% increase in elastin production over control cells.
(§2) Wrinkling of the skin involves the decreased formation of elastin and the increased formation of collagen by supporting cells, predominantly the fibroblasts.

[3] = tested on: human fibroblast cells; assay: Collagen production by fibroblast cells; type: cell-based; conditions: treated vs control cells
Excerpt: as §1, §2

Compound | estrogen binding, male patients ([1]; male patients) | Binding of Estrogen ([1]; patient 1) | Binding of Estrogen ([1]; patient 2) | formation of elastin ([2]; Example 45) | increase in elastin production over control cells ([2]; treated vs control (non-treated) fibroblast cells) | collagen production/formation [3]
Estrogen | neither detectable | 9 | 4 |  |  | 
CCOC(CC)CCCCC1CCC2CC(=O)CC12 (stereo not drawn) [Compound VI, 2-(5-ethoxyhept-1-yl)bicyclo[3.3.0]octan-7-one] |  |  |  | massive observable increase in the formation of elastin | ~30% | decrease in collagen production; also recorded: decreased
